In patent US9833433B1, “Compositions, methods of use, and methods of treatment” (priority 2013, dated 2017):

Tests used:
[1] = system: COX-2; assay: COX-2 expression in neuronal and astroglial cell-enriched cultures; format: cell-based; settings: assayed 12 hr after treatment
Method: Relative pure hippocampal neurons (astroglial cells<2%), mixed neurons and astroglial cells (astroglial cells ˜10%), and astroglial cell-enriched (astroglial cells>95%), and NG108-15 cell cultures were made as described previously (Sang et al, 2005; Zhang and Chen, 2008).
Primary hippocampal neurons (astroglial cells<2%), mixed neurons and astroglial cells (astroglial cells ˜10%), astroglial cell-enriched (astroglial cells>95%) and NG108-15 cells were cultured as described previously (Sang et al, 2005; Zhang and Chen, 2008). The extent of neurons and astroglial cells in culture were controlled by different treatments, which was estimated by using immunostaining with NeuN, a neuronal marker, glial fibrillary acidic protein (GFAP), an astrocytic marker, and OX-42, a microglial marker, in conjunction with DAPI staining.

[2] = system: GluA1, GluN2A, GluN2B; assay: Immunoblot and surface biotinylation of glutamate receptor subunits in hippocampus; format: in vivo; settings: WT mice; Δ^9-THC for 7 days
Method: Western blot assay was conducted using specific antibodies (Table S1) to determine expressions of COX-2, glutamate receptor subunits, PSD-95, G-protein subunits, phosphoproteins, BACE1 and neprilysin in hippocampal tissue and/or in cultured cells as described previously (Chen et al., 2012). Surface biotinylation assays were performed to determine surface expression of glutamate receptor subunits in hippocampal slices as described previously (Fan et al., 2010).
Surface biotinylation assays were performed in hippocampal slices as described previously (Chen et al., 2006; Fan et al., 2010). Briefly, hippocampal slices were cut at thickness of 400 μm using a vibratome from mice that received vehicle or Δ^9-THC for 7 consecutive days, and then transferred to a six-well plate and incubated on ice for 1 h in carbogenated ACSF containing 500 μM Sulfo-NHS-SS-biotin (Thermo-Pierce, Rockford, Ill.). Collected tissue was then washed three times for 5 min with ice-cold ACSF containing 10 mM glycine, and was immediately homogenized in 800 μL ice-cold lysis buffer containing 20 mM Tris-HCl, pH 7.5, 1% Triton X-100, 50 mM NaCl, 1 mM EDTA, 0.1% sodium dodecyl sulfate, and a cocktail of protease inhibitors (Sigma, St. Louis, Mo.). After incubation on ice for 30 min, the homogenate was centrifuged at 18000 g at 4° C. for 10 min. Supernatants were collected. […]

[3] = system: PGE2; assay: PGE2 assay in hippocampal tissue (enzyme immunoassay); format: in vivo, mice; settings: 10 mg/kg; detected 4 hrs after injection
Description: PGE2 in hippocampal tissue was detected using PGE2 enzyme immunoassay kit (Cayman Chemical, Ann Arbor, Mich.) according to the procedure described by the manufacturer (Zhang and Chen, 2008).

[4] = system: NF-κB p65 binding to ptgs2 promoter; format: cell-based; settings: mixed culture; Δ^9-THC 30 μM
[5] = system: hippocampal LTP at CA3-CA1 and perforant path synapses; assay: Hippocampal LTP (fEPSP recordings in slices, theta-burst stimulation); format: in vivo, mice; settings: 10 mg/kg once daily for 7 days; LTP 24 hr after last injection; CA3-CA1 and perforant path
Method: Hippocampal LTP both at CA3-CA1 and perforant path synapses were recorded in acutely hippocampal slices and induced by a theta-burst stimulation (TBS) as described previously (Hoffman et al., 2007).
Hippocampal slices were prepared from mice as described previously (Chen et al., 2002; Chen et al., 2012; Fan et al., 2010). Briefly, after decapitation, brains were rapidly removed and placed in cold oxygenated (95% O2, 5% CO2) artificial cerebrospinal fluid (ACSF) containing: 125.0 NaCl, 2.5 KCl, 1.0 MgCl2, 25.0 NaHCO3, 1.25 NaH2PO4, 2.0 CaCl2, 25.0 glucose, 3 pyruvic acid, and 1 ascorbic acid. Slices were cut at a thickness of 350-400 μm and transferred to a holding chamber in an incubator containing ACSF at 36° C. for 0.5 to 1 hour, and maintained in an incubator containing oxygenated ACSF at room temperature (˜22-24° C.) for >1.5 h before recordings. Slices were then transferred to a recording chamber where they were continuously perfused with 95% O2, 5% CO2-saturated standard ACSF at ˜32-34° C. Individual pyramidal and dentate granule neurons were viewed with an upright microscope (Olympus BX51WI) fitted with a 60× water-immersion objective and differential interference contrast (DIC) optics.
Field EPSP (fEPSP) recordings both at CA3-CA1 and perforant path synapses in response to stimuli at a frequency of 0.05 Hz were made using an Axoclamp-2B patch-clamp amplifier (Molecular Devices, CA) in bridge mode. Recording pipettes were pulled from borosilicate glass with a micropipette puller (Sutter Instrument), filled with artificial ACSF (2-4 MΩ). […]

CCCCCc1cc(O)c2c(c1)OC(C)(C)[C@@H]1CCC(C)=C[C@@H]21 [Δ^9-THC, Δ^9-tetrahydrocannabinol]
COX-2 expression in neuronal and astroglial cell-enriched cultures [1]: CB1R-dependent increase in COX-2 expression both in neuronal and astroglial cell-enriched cultures
total and surface expressions of GluA1, GluN2A, GluN2B (immunoblot) [2]: significantly decreased
hippocampal PGE2 production after cannabinoid injection [3]: elevated production of prostaglandin E2 (PGE2)
binding of NF-κB p65 to ptgs2 promoter positions −419 to −428 bp [4]: enhanced
hippocampal LTP after repeated Δ^9-THC exposure [5]: decreased hippocampal LTP
